# Measurements reported in publication PMC11480411, “Mucosal sugars delineate pyrazine vs pyrazinone autoinducer signaling in Klebsiella oxytoca” (Nature Communications, 2024).
# “And” between values parts separate entries of the source, which are not always exact repeats. Equal values may be shown once.
# What was measured:
# HRH2 = biological target: T1, HRH2 (Homo sapiens, UniProt P25021); experiment: PRESTO-Tango GPCR screen and dose-response; format: cell-based; settings: for HRH2 dose-response raw reporter signal (Fig. 5b source data): replicate wells
# T1 construct: expressed in transfected cells; host or cells: HTLA cells (HEK293 line stably expressing β-arrestin-TEV and tTA-Luciferase)
# Protocol: (§1) The PRESTO-Tango analyses were performed as previously published. Briefly, HTLA cells, a HEK293 cell line that stably expresses β-arrestin-TEV and tTA-Luciferase (a kind gift from Gilad Barnea, Brown University), were plated in 96-well tissue culture plates (Eppendorf) in DMEM containing 10% FBS and 1% Penicillin/Streptomycin. One day after plating (after reaching approximately 90% confluence), 200 ng per well GPCR-Tango plasmids[37] in 20 μL DMEM were individually mixed with 400 ng polyethylenimine (Polysciences) in an equal volume of DMEM and incubated for 20 min at room temperature before adding the transfection mixture to the HTLA cells. 16-24 h after transfection, medium was replaced with 180 μL fresh DMEM containing 1% Penicillin/Streptomycin and 10 mM HEPES and 20 μL of 3 or 3-Homo to reach a final concentration of 100 μM. Supernatants were aspirated 20 h after stimulation and 50 μl per well of Bright-Glo solution (Promega) diluted 20-fold with PBS containing 20 mM HEPES was added into each well. After 15 min incubation at room temperature, luminescence was quantified using a Spectramax i3x microplate reader (Molecular Devices). Activation fold for each sample was calculated by dividing relative luminescence units (RLU) for each condition by RLUs from PBS control. Dose response curves of each chemical were performed in a similar way with varying the ligand concentration from 10^−4 M to 10^−15 M.
# [1] = biological target: T2, histamine receptor H4 (HRH4) (Homo sapiens, UniProt Q9H3N8); experiment: PRESTO-Tango GPCR screen and dose-response; format: cell-based; settings: for HRH4 dose-response raw reporter signal (Fig. 5b source data): replicate wells
# T2 construct: expressed in transfected cells; host or cells: HTLA cells (HEK293 line stably expressing β-arrestin-TEV and tTA-Luciferase)
# Protocol: as §1
# HRH1 = biological target: T3, HRH1 (Homo sapiens, UniProt P35367); experiment: PRESTO-Tango GPCR screen and dose-response; format: cell-based; settings: for HRH1 dose-response raw reporter signal (Fig. 5b source data): replicate wells
# T3 construct: expressed in transfected cells; host or cells: HTLA cells (HEK293 line stably expressing β-arrestin-TEV and tTA-Luciferase)
# Protocol: as §1
# HRH3 = biological target: T4, HRH3 (Homo sapiens, UniProt Q9Y5N1); experiment: PRESTO-Tango GPCR screen and dose-response; format: cell-based; settings: for HRH3 dose-response raw reporter signal (Fig. 5b source data): replicate wells
# T4 construct: expressed in transfected cells; host or cells: HTLA cells (HEK293 line stably expressing β-arrestin-TEV and tTA-Luciferase)
# Protocol: as §1
# ∆pyr K. oxytoca = experiment: RNA-seq of compound-supplemented ∆pyr K. oxytoca; format: cell-based, Klebsiella oxytoca ATCC 8724; settings: 10 µM
# Protocol: A ∆pyr K. oxytoca glycerol stock was streaked onto an LB-Agar plate supplemented with spectinomycin (50 µg/mL) and incubated aerobically at 30°C for 24 h in a stationary incubator. Single colonies were grown for 24 h aerobically in 5 mL of M9 minimal medium supplemented with 5 g/L casamino acids and 0.4% D-galactose at 30 °C and 250 rpm. Each ∆pyr K. oxytoca overnight culture was diluted 1:1000 into fresh medium (5 mL) and incubated aerobically at 30 °C and 250 rpm to mid-exponential growth (OD600 = 0.8). These conditions abrogated both detectable pyrazine and pyrazinone production. At this point, 10 µM of compound in DMSO, were added to the cultures; an equal volume of DMSO was added to cultures without compound as a solvent vehicle control. The cultures were incubated under aerobic conditions with the compounds for one hour at 30 °C and at 250 rpm. After incubation, the cultures were centrifuged, the supernatants were decanted, and the cell pellets were quickly resuspended in 5 mL of Bacterial RNAProtect (Qiagen). The samples were centrifuged again, and the pellets were frozen on dry ice and stored at −80 °C until RNA extraction. The processed cell pellets were thawed on ice and resuspended in 200 µL of lysis buffer (10 mM Tris, 1 mM EDTA, 5 mg/mL lysozyme, 12.5 µg/mL proteinase K [pH 8.0]) and incubated at room temperature for 10 min. The RNA was extracted via the Qiagen RNeasy Mini kit, treated with TURBO DNase in a total volume of 100 µL at room temperature for 30 min, and extracted again using an RNeasy Mini kit. RNA-seq analysis was conducted by the Yale Center for Genome Analysis. Sequences were aligned to the K. oxytoca ATCC 8724 genome (NC_016612.1). Differential expression analysis was performed through DESeq2 and pathway enrichment analysis was performed through the Funage-Pro web-based platform.
# T1 sequence (P25021 whole entry): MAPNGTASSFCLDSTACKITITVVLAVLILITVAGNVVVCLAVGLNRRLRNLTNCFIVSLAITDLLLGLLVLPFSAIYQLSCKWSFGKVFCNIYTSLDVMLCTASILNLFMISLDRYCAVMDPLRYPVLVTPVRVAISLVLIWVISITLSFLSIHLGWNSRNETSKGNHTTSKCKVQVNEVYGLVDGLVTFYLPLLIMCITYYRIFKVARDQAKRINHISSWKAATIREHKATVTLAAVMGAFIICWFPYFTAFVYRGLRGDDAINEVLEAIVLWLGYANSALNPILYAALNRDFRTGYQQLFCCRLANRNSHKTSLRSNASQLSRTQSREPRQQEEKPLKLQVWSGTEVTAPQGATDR
# T3 sequence (P35367 whole entry): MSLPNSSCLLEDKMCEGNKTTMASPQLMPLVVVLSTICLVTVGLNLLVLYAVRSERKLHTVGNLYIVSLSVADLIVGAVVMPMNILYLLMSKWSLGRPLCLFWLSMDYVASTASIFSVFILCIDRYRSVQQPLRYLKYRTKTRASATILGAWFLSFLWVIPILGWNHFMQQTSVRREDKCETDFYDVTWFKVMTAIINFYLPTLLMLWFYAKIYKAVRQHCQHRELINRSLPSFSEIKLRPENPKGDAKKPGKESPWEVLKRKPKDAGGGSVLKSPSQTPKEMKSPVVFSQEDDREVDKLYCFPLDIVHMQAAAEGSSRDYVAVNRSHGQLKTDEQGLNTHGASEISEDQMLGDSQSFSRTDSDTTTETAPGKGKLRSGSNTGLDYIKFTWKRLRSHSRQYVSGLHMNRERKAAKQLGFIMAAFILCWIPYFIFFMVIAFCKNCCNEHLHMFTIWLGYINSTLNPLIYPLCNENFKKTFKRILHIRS
# T2 sequence (Q9H3N8 whole entry): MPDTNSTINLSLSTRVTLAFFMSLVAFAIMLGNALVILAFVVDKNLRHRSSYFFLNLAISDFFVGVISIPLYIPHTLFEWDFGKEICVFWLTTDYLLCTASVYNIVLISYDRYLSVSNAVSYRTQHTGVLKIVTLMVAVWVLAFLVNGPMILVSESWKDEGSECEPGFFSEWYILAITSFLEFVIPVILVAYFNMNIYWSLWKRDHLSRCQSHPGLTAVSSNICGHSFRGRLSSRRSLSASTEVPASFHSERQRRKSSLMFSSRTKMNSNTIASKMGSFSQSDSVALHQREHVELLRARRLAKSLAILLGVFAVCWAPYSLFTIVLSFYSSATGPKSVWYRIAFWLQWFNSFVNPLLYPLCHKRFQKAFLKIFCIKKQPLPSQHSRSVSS
# T4 sequence (Q9Y5N1 whole entry): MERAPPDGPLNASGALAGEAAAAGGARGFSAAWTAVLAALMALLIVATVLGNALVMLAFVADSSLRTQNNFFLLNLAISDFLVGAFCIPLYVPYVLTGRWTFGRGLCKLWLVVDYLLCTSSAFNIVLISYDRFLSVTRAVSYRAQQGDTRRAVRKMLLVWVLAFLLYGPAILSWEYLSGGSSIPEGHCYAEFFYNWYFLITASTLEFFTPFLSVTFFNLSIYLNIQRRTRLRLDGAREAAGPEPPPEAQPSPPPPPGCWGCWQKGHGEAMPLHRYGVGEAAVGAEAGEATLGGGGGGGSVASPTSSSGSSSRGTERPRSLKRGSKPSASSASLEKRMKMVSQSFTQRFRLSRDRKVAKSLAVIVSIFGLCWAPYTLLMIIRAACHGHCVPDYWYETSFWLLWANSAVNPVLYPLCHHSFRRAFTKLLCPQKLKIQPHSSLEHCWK
compound,measurement,setting,value
Cc1cnc(CCC(=O)O)c(Cc2ccccc2)n1 [compound 7],HRH2 dose-response raw reporter signal (Fig. 5b source data),HRH2; Log(10)Conc (M) -4,62 and 50 and 47
same,HRH2 dose-response raw reporter signal (Fig. 5b source data),HRH2; Log(10)Conc (M) -5,47 and 50 and 83
same,HRH2 dose-response raw reporter signal (Fig. 5b source data),HRH2; Log(10)Conc (M) -6,18 and 53 and 71
same,HRH2 dose-response raw reporter signal (Fig. 5b source data),HRH2; Log(10)Conc (M) -7,50 (2×) and 74
same,HRH2 dose-response raw reporter signal (Fig. 5b source data),HRH2; Log(10)Conc (M) -8,44 and 35 and 56
same,HRH2 dose-response raw reporter signal (Fig. 5b source data),HRH2; Log(10)Conc (M) -9,97 and 65 and 41
same,HRH2 dose-response raw reporter signal (Fig. 5b source data),HRH2; Log(10)Conc (M) -10,56 and 32 and 21
same,HRH2 dose-response raw reporter signal (Fig. 5b source data),HRH2; Log(10)Conc (M) -11,18 and 53 and 44
same,HRH2 dose-response raw reporter signal (Fig. 5b source data),HRH2; Log(10)Conc (M) -12,32 and 65 and 68
same,HRH2 dose-response raw reporter signal (Fig. 5b source data),HRH2; Log(10)Conc (M) -13,35 and 62 and 97
same,HRH2 dose-response raw reporter signal (Fig. 5b source data),HRH2; Log(10)Conc (M) -14,32 and 47 and 68
same,HRH2 dose-response raw reporter signal (Fig. 5b source data),HRH2; Log(10)Conc (M) -15,77 and 53 and 71
same,activity towards HRH2,HRH2; PRESTO-Tango dose-response,no activity
same,HRH4 dose-response raw reporter signal (Fig. 5b source data),[1]; Log(10)Conc (M) -5,245 and 339
same,HRH4 dose-response raw reporter signal (Fig. 5b source data),[1]; Log(10)Conc (M) -6,295 and 333
same,HRH4 dose-response raw reporter signal (Fig. 5b source data),[1]; Log(10)Conc (M) -7,242 and 304
same,HRH4 dose-response raw reporter signal (Fig. 5b source data),[1]; Log(10)Conc (M) -8,271 and 336
same,HRH4 dose-response raw reporter signal (Fig. 5b source data),[1]; Log(10)Conc (M) -9,425 and 324
same,HRH4 dose-response raw reporter signal (Fig. 5b source data),[1]; Log(10)Conc (M) -10,307 and 401
same,HRH4 dose-response raw reporter signal (Fig. 5b source data),[1]; Log(10)Conc (M) -11,312 and 366
same,HRH4 dose-response raw reporter signal (Fig. 5b source data),[1]; Log(10)Conc (M) -12,242 and 292
same,HRH4 dose-response raw reporter signal (Fig. 5b source data),[1]; Log(10)Conc (M) -13,256 and 383
same,HRH4 dose-response raw reporter signal (Fig. 5b source data),[1]; Log(10)Conc (M) -14,271 and 304
same,HRH4 dose-response raw reporter signal (Fig. 5b source data),[1]; Log(10)Conc (M) -15,286 and 230
same,activity towards HRH4,[1]; PRESTO-Tango dose-response,no activity
same,HRH1 dose-response raw reporter signal (Fig. 5b source data),HRH1; Log(10)Conc (M) -4,51351 and 49812 and 56357
same,HRH1 dose-response raw reporter signal (Fig. 5b source data),HRH1; Log(10)Conc (M) -5,52012 and 52029 and 55110
same,HRH1 dose-response raw reporter signal (Fig. 5b source data),HRH1; Log(10)Conc (M) -6,48657 and 55248 and 53819
same,HRH1 dose-response raw reporter signal (Fig. 5b source data),HRH1; Log(10)Conc (M) -7,47504 and 53144 and 54812
same,HRH1 dose-response raw reporter signal (Fig. 5b source data),HRH1; Log(10)Conc (M) -8,48011 and 51622 and 55024
same,HRH1 dose-response raw reporter signal (Fig. 5b source data),HRH1; Log(10)Conc (M) -9,49795 and 49308 and 52115
same,HRH1 dose-response raw reporter signal (Fig. 5b source data),HRH1; Log(10)Conc (M) -10,46794 and 49653 and 52654
same,HRH1 dose-response raw reporter signal (Fig. 5b source data),HRH1; Log(10)Conc (M) -11,47026 and 50225 and 51761
same,HRH1 dose-response raw reporter signal (Fig. 5b source data),HRH1; Log(10)Conc (M) -12,51855 and 50992 and 52000
same,HRH1 dose-response raw reporter signal (Fig. 5b source data),HRH1; Log(10)Conc (M) -13,49320 and 51552 and 55349
same,HRH1 dose-response raw reporter signal (Fig. 5b source data),HRH1; Log(10)Conc (M) -14,48035 and 52604 and 51817
same,HRH1 dose-response raw reporter signal (Fig. 5b source data),HRH1; Log(10)Conc (M) -15,39264 and 44810 and 48161
same,activity towards HRH1,HRH1; PRESTO-Tango dose-response,no activity
same,HRH3 dose-response raw reporter signal (Fig. 5b source data),HRH3; Log(10)Conc (M) -4,106 and 112 and 159
same,HRH3 dose-response raw reporter signal (Fig. 5b source data),HRH3; Log(10)Conc (M) -5,124 and 133 and 80
same,HRH3 dose-response raw reporter signal (Fig. 5b source data),HRH3; Log(10)Conc (M) -6,56 and 106 and 124
same,HRH3 dose-response raw reporter signal (Fig. 5b source data),HRH3; Log(10)Conc (M) -7,83 and 106 and 180
same,HRH3 dose-response raw reporter signal (Fig. 5b source data),HRH3; Log(10)Conc (M) -8,112 and 142 and 106
same,HRH3 dose-response raw reporter signal (Fig. 5b source data),HRH3; Log(10)Conc (M) -9,97 and 112 and 139
same,HRH3 dose-response raw reporter signal (Fig. 5b source data),HRH3; Log(10)Conc (M) -10,139 and 97 and 159
same,HRH3 dose-response raw reporter signal (Fig. 5b source data),HRH3; Log(10)Conc (M) -11,91 and 139 and 136
same,HRH3 dose-response raw reporter signal (Fig. 5b source data),HRH3; Log(10)Conc (M) -12,118 and 124 and 203
same,HRH3 dose-response raw reporter signal (Fig. 5b source data),HRH3; Log(10)Conc (M) -13,59 and 109 and 130
same,HRH3 dose-response raw reporter signal (Fig. 5b source data),HRH3; Log(10)Conc (M) -14,85 and 142 and 124
same,HRH3 dose-response raw reporter signal (Fig. 5b source data),HRH3; Log(10)Conc (M) -15,53 and 91 and 112
same,activity towards HRH3,HRH3; PRESTO-Tango dose-response,no activity
same,number of differentially regulated genes,"∆pyr K. oxytoca; one hour, vs DMSO, Padj < 0.05, abs(log2FC) > 1",644 genes
same,effect on enterobactin BGC transcription,"∆pyr K. oxytoca; vs DMSO control, RNA-seq",significantly enhanced transcription of the enterobactin BGC
same,"KEGG pathway enrichment neglogP: Citrate cycle, downregulated","∆pyr K. oxytoca; Funage-Pro, 7 downreg",3.041
same,"KEGG pathway enrichment neglogP: Glycerolipid metabolism, downregulated","∆pyr K. oxytoca; Funage-Pro, 7 downreg",4.481
same,"KEGG pathway enrichment neglogP: Nitrogen metabolism, downregulated","∆pyr K. oxytoca; Funage-Pro, 7 downreg",3.06
same,"KEGG pathway enrichment neglogP: ABC Transporters, upregulated","∆pyr K. oxytoca; Funage-Pro, 7 upreg",4.602
same,"KEGG pathway enrichment neglogP: Biosynthesis of siderophore group nonribosomal peptides, upregulated","∆pyr K. oxytoca; Funage-Pro, 7 upreg",5.301
same,"KEGG pathway enrichment neglogP: Oxidative phosphorylation, upregulated","∆pyr K. oxytoca; Funage-Pro, 7 upreg",3.252
same,"KEGG pathway enrichment neglogP: Phenylalanine Metabolism, upregulated","∆pyr K. oxytoca; Funage-Pro, 7 upreg",4.301
same,effect on cytochrome-related operons transcription,"∆pyr K. oxytoca; RNA-seq, pyrazine 7 compared with pyrazinone 3",prominently upregulated
